Laboratory results: patent US10772944B2, “Bacterial ghosts for the treatment of cancer” (BIRD-C GMBH, priority 2016, dated 2020)

Tested on: CT26 mouse colorectal carcinoma
Conditions: one cycle: BGs 4x10^8 at D4, oxaliplatin 6 mg/kg i.p. at D4, D6; harvest D18
Method: Treatment of mice started three days after tumor inoculation and comprised of either one or two cycles of BGs administration combined with either two or four drug administrations, respectively. Furthermore, part of mice was treated with either two or four drug administrations without the extra addition of BGs. Survival and animal behavior were monitored until the section day; animal weights were documented once per week. Tumor presence and burden were assessed at the section day including organ screening and photo documentation.
The mice were inoculated intraperitoneally (in lower left quadrant) with 1×10^5 cells of CT26 mouse colorectal carcinoma cells and randomly distributed into the seven groups (D1).
Three days after tumor inoculation (D4) the first group of animals (Group #1) received 100 μl of 5% glucose solution for injection (solvent) administered intraperitoneally at the same place as used for tumor inoculation.
Mice from Group #2.1 were injected intraperitoneally at D4 and D6 (five days after tumor inoculation) with 6 mg/kg oxaliplatin reconstituted in 100 μl of 5% glucose solution for injection at the same place as used for tumor inoculation. […]

O=C1[O][Pt]2([NH][C@@H]3CCCC[C@H]3[NH]2)[O]C1=O [oxaliplatin]
tumor burden (weight of collected tumor tissues) versus control: tumor mass reduction detected
